According to patent US11028095B2, “Spiro-lactam and bis-spiro-lactam NMDA receptor modulators and uses thereof” (Aptinyx Inc., priority 2016, dated 2021):
Where two headings read alike, the source gives them in different places.

What was measured:
[1] = system: positive (hedonic) 50-kHz ultrasonic vocalizations (USVs); assay: Positive Emotional Learning (PEL) test; assay type: in vivo; settings: rat, PO, one hour after administration
Method in brief: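 Rats received test compound or vehicle (0.5% carboxymethyl cellulose in saline) 1 h before 3 min of experimenter-delivered rough-and-tumble play in alternating 15 s play and no-stimulation blocks. Frequency-modulated 50-kHz USVs during no-stimulation (CS) periods were counted; animals not habituated beforehand.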

[2] = Microsomal stability (Human); assay type: in vitro ADME; settings: human microsomes
Procedure: (§1) Microsomal stability of disclosed compounds was investigated. The following table indicates the percent of compound remaining after 60 minutes.

[3] = Microsomal stability (Rat); assay type: in vitro ADME; settings: rat microsomes
Procedure: as §1

Plasma stability (Human) = assay type: in vitro ADME
Procedure: (§2) Plasma stability of disclosed compounds was investigated. The following table indicates the percent of compound remaining after 60 minutes.

Plasma stability (Rat) = assay type: in vitro ADME
Procedure: as §2

[4] = target: T1, NMDAR2A expressing HEK cell membranes (Homo sapiens, UniProt Q12879); assay: NMDAR agonist assay, [3H]MK-801 binding, NMDAR2A; assay type: biochemical; settings: 50 μM glutamate; for EC50: [3H]MK-801 binding, read-out: NMDAR2A: log EC50 (converted)
T1 construct: expressed in transfected cells; host or cells: HEK cells (membrane extract)
Procedure: (§3) (nonequilibrium conditions).
(§4) The baseline value was determined from the best fit curve of the DPM values modeled using the GraphPad program and the log(agonist) vs. response(three parameters) algorithm was then subtracted from all points in the dataset.

[5] = target: T2, NMDAR2B expressing HEK cell membranes (Homo sapiens, UniProt Q13224); assay: NMDAR agonist assay, [3H]MK-801 binding, NMDAR2B; assay type: biochemical; settings: 50 μM glutamate; for EC50: [3H]MK-801 binding, read-out: NMDAR2B log EC50 (converted)
T2 construct: expressed in transfected cells; host or cells: HEK cells (membrane extract)
Procedure: as §3, §4

[6] = target: T3, NMDAR2C expressing HEK cell membranes (Homo sapiens, UniProt Q05586+Q14957); assay: NMDAR agonist assay, [3H]MK-801 binding, NMDAR2C; assay type: biochemical; settings: 50 μM glutamate; for EC50: [3H]MK-801 binding, read-out: NMDAR2C: log EC50 (converted)
T3 construct: expressed in transfected cells; host or cells: HEK cells (membrane extract)
Procedure: as §3, §4

[7] = target: T4, NMDAR2D expressing HEK cell membranes (Homo sapiens, UniProt O15399); assay: NMDAR agonist assay, [3H]MK-801 binding, NMDAR2D; assay type: biochemical; settings: 50 μM glutamate; for EC50: [3H]MK-801 binding, read-out: NMDAR2D: log EC50 (converted)
T4 construct: expressed in transfected cells; host or cells: HEK cells (membrane extract)
Procedure: as §3, §4

[8] = target: T5, NMDAR2A expressing HEK cell membranes (Homo sapiens, UniProt Q05586+Q12879); assay: NMDAR agonist assay, [3H]MK-801 binding, NMDAR2A; assay type: biochemical; settings: 50 μM glutamate
T5 construct: expressed in transfected cells; host or cells: HEK cells (membrane extract)
Procedure: as §3, §4

[9] = target: T6, NMDAR2B expressing HEK cell membranes (Homo sapiens, UniProt Q05586+Q13224); assay: NMDAR agonist assay, [3H]MK-801 binding, NMDAR2B; assay type: biochemical; settings: 50 μM glutamate; for EC50: [3H]MK-801 binding, read-out: NMDAR2B log EC50 (converted)
T6 construct: expressed in transfected cells; host or cells: HEK cells (membrane extract)
Procedure: as §3, §4

[10] = target: T7, NMDAR2C expressing HEK cell membranes (Homo sapiens, UniProt Q14957); assay: NMDAR agonist assay, [3H]MK-801 binding, NMDAR2C; assay type: biochemical; settings: 50 μM glutamate
T7 construct: expressed in transfected cells; host or cells: HEK cells (membrane extract)
Procedure: as §3, §4

[11] = target: T8, NMDAR2D expressing HEK cell membranes (Homo sapiens, UniProt O15399+Q05586); assay: NMDAR agonist assay, [3H]MK-801 binding, NMDAR2D; assay type: biochemical; settings: 50 μM glutamate; for EC50: [3H]MK-801 binding, read-out: NMDAR2D: log EC50 (converted)
T8 construct: expressed in transfected cells; host or cells: HEK cells (membrane extract)
Procedure: as §3, §4

IV pharmacokinetics = assay type: in vivo; set-up: C0: unit: ng/mL; settings: Sprague Dawley rats, 2 mg/kg, normal saline
Procedure: Sprague Dawley rats were dosed intravenously using a normal saline formulation containing 2 mg/kg of the compounds identified in the below table. The table below summarizes the results of the IV pharmacokinetics.

[12] = Oral pharmacokinetics (plasma, brain, CSF); assay type: in vivo; set-up: Cmax: unit: ng/mL; settings: Sprague Dawley rats, per os, 10 mg/kg; for Tmax: normal saline
Procedure: In another experiment, Sprague Dawley rats were dosed per os using a normal saline formulation containing 10 mg/kg of the compounds identified in the table below. Plasma, brain, and CSF samples were analyzed at various time points over a 24 hour period. The table below summarizes the results of the oral pharmacokinetics.

[13] = Sprague Dawley, rat, in vivo, iv
[14] = Sprague Dawley, rat, plasma, po

T2 sequence (Q13224 27-1484, other chains not shown): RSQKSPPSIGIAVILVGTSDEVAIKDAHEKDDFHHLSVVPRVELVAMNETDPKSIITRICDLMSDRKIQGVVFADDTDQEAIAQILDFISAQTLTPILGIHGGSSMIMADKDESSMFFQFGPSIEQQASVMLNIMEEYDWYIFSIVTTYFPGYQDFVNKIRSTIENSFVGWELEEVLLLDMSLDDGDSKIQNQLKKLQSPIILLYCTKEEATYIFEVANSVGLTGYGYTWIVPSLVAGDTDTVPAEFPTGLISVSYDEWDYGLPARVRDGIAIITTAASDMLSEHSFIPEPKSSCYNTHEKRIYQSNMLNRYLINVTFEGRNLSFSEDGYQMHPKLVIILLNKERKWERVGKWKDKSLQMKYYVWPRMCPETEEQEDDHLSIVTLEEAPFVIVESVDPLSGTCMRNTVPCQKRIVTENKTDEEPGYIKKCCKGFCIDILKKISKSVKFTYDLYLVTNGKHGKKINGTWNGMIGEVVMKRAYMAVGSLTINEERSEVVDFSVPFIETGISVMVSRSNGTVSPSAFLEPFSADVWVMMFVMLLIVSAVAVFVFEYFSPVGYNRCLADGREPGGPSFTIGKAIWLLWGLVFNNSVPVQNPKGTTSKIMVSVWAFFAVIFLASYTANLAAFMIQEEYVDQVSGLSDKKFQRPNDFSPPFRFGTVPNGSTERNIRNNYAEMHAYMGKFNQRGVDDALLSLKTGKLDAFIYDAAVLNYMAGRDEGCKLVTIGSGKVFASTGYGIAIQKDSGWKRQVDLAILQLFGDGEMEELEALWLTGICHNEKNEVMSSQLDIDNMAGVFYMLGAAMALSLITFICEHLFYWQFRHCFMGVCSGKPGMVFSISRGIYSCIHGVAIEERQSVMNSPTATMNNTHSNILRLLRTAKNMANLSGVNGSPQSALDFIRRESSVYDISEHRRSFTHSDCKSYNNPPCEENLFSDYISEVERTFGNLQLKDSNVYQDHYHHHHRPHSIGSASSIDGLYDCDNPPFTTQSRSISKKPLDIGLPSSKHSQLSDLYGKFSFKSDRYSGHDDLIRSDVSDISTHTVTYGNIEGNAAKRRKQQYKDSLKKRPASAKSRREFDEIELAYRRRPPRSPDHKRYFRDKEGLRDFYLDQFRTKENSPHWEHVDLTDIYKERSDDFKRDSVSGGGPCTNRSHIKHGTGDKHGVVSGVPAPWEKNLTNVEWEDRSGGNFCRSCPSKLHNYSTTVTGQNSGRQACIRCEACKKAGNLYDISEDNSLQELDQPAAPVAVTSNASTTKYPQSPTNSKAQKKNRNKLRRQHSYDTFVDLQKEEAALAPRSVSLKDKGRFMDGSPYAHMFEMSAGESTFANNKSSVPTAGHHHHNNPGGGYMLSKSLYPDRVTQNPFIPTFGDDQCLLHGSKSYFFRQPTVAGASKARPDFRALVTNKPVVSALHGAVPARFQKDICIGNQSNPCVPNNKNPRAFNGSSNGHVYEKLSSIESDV
T6 sequence (Q13224 27-1484, other chains not shown): as above
T8 sequence (O15399 28-1336, other chains not shown): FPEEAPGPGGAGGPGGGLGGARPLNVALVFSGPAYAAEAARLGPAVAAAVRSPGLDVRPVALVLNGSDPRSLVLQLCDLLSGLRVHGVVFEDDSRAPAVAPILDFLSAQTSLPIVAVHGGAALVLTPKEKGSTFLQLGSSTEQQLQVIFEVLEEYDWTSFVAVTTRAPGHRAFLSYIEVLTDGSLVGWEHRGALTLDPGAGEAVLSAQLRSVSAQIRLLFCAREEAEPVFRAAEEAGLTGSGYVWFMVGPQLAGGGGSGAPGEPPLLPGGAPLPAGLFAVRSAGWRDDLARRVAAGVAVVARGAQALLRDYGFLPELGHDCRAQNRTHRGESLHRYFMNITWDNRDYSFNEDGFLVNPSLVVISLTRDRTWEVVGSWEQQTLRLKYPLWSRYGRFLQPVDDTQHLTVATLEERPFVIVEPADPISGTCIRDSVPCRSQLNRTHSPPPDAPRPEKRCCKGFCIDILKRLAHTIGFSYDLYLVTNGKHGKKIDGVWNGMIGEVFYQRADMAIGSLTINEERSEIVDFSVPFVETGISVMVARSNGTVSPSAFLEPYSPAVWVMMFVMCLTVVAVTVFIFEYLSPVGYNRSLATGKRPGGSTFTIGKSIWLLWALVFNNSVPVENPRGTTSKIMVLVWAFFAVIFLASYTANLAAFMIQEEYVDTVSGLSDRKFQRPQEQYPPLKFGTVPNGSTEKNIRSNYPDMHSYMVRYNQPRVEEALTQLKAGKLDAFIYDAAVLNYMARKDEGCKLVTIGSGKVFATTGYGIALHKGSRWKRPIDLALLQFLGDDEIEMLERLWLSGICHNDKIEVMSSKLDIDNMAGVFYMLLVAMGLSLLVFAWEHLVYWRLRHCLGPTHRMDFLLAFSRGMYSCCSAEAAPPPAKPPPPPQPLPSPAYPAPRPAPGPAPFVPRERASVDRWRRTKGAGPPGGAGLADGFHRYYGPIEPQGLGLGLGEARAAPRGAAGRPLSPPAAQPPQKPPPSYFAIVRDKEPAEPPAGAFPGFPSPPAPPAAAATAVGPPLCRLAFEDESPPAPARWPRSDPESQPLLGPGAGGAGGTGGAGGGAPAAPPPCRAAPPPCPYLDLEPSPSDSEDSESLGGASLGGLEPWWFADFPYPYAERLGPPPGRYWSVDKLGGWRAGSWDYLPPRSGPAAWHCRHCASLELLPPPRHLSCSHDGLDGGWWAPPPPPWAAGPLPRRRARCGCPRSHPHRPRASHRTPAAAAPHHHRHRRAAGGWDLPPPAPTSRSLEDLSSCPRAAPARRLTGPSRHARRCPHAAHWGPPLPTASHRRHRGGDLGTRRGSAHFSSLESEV
T4 sequence (O15399 28-1336, other chains not shown): as above

Compound	Microsomal (Human): percent of compound remaining after 60 minutes [2] [%]	Microsomal (Rat): percent of compound remaining after 60 minutes [3] [%]	Plasma (Human): percent of compound remaining after 60 minutes (Plasma stability (Human)) [%]	Plasma (Rat): percent of compound remaining after 60 minutes (Plasma stability (Rat)) [%]	NMDAR2A: % maximal [3H]MK-801 binding relative to 1 mM glycine [4]	EC50 [5] [nM]	NMDAR2B: % maximal [3H]MK-801 binding relative to 1 mM glycine [5]	NMDAR2D: % maximal [3H]MK-801 binding relative to 1 mM glycine [7]	EC50 [9] [nM]	EC50 [6] [nM]	NMDAR2C A: % maximal [3H]MK-801 binding relative to 1 mM glycine [10]	EC50 [11] [nM]	EC50 [4] [nM]	Vss (IV pharmacokinetics) [L/kg]	CSF Cmax [12] [ng/mL]	Brain Cmax [12] [ng/mL]	EC50 [7] [nM]	Max Effect (mean number of 50 kHz USVs per 15 seconds) ([1]; dose 0.001-1 mg/kg)	Max Effect (mean number of 50 kHz USVs per 15 seconds) ([1]; dose 0.1 mg/kg)	other results
C[C@@H](O)[C@H](NC(=O)C1CCC2(CNC2=O)N1Cc1ccccc1)C(N)=O (single isomer, unassigned) [AM]	95	99	88	87	+ (<100%=+)	–	+ (<100%=+)	–	< 1	> 100	− (−=0)	< 1	< 1	1.21	0	0	–	–	* (*: 6-10.9)	Emax ([11]; relative to 1 mM glycine, read-out: NMDAR2D: % maximal [3H]MK-801 binding relative to 1 mM glycine): < 100%; AUC(0-t) (IV pharmacokinetics; [13]): 1000 ng·h/mL; clearance (IV pharmacokinetics; [13]): 33.3 mL/min/kg; half-life (IV pharmacokinetics; [13]): 2.38 h; C0 (IV pharmacokinetics; Sprague Dawley, rat, in vivo, iv, read-out: C0): 3460 ng/mL; AUC(0-t) [12, 14]: 97.6 ng·h/mL; bioavailability [12, 14]: 2%; Tmax ([12]; Sprague Dawley, rat, plasma, po, read-out: Tmax): 0.33 h; Cmax ([12]; Sprague Dawley, rat, plasma, po, plasma, read-out: Cmax): 34.2 ng/mL
C[C@@H](O)[C@H](NC(=O)C1CCC2(CNC2=O)N1Cc1ccccc1)C(N)=O (single isomer, unassigned) [AN]	88	87	88	87	+ (<100%=+)	–	+ (<100%=+)	+ (<100%=+)	< 1	< 1	+ (<100%=+)	–	< 1	2.45	0	0	< 1	–	* (*: 6-10.9)	AUClast (IV pharmacokinetics): 727.7 ng·h/mL; C0 (IV pharmacokinetics): 3209.4 ng/mL; Cl (IV pharmacokinetics): 45.98 mL/min/kg; T1/2 (IV pharmacokinetics): 4.67 h; % F [12]: 3%; AUClast [12]: 126.32 ng·h/mL; Tmax [12]: 0.42 h; Cmax ([12]; plasma): 38.9 ng/mL

More lines, main results first:

Microsomal (Human): percent of compound remaining after 60 minutes [2] [%]	Microsomal (Rat): percent of compound remaining after 60 minutes [3] [%]	Plasma (Human): percent of compound remaining after 60 minutes (Plasma stability (Human)) [%]	Plasma (Rat): percent of compound remaining after 60 minutes (Plasma stability (Rat)) [%]	NMDAR2A: % maximal [3H]MK-801 binding relative to 1 mM glycine [4]	EC50 [5] [nM]	NMDAR2B: % maximal [3H]MK-801 binding relative to 1 mM glycine [5]	NMDAR2D: % maximal [3H]MK-801 binding relative to 1 mM glycine [7]	EC50 [9] [nM]	EC50 [6] [nM]	NMDAR2C A: % maximal [3H]MK-801 binding relative to 1 mM glycine [10]	EC50 [11] [nM]	EC50 [4] [nM]	Vss (IV pharmacokinetics) [L/kg]	CSF Cmax [12] [ng/mL]	Brain Cmax [12] [ng/mL]	EC50 [7] [nM]	Compound	Max Effect (mean number of 50 kHz USVs per 15 seconds) ([1]; dose 0.001-1 mg/kg)	Max Effect (mean number of 50 kHz USVs per 15 seconds) ([1]; dose 0.1 mg/kg)	other results
95	100	100	100	+ (<100%=+)	< 1	+ (<100%=+)	+ (<100%=+)	–	–	–	–	–	–	–	–	–	O=C1NCC12CCC1(CNC1=O)N2Cc1ccccc1 (single isomer, unassigned) [AC-1, 5-benzyl-2,5,8-triazadispiro[3.1.36.24]undecane-1,7-dione]	* (*: 6-10.9)	–	Emax ([6]; relative to 1 mM glycine, read-out: NMDAR2C A: % maximal [3H]MK-801 binding relative to 1 mM glycine): < 100%
98	100	94	94	–	–	–	+ (<100%=+)	< 1	< 1	+ (<100%=+)	< 1	–	–	–	–	–	O=C1NCC12CCC1(CNC1=O)N2Cc1ccccc1 (single isomer, unassigned) [AC-2, 5-benzyl-2,5,8-triazadispiro[3.1.36.24]undecane-1,7-dione]	* (*: 6-10.9)	–	EC50 ([8]; [3H]MK-801 binding, read-out: NMDAR2A: log EC50 (converted)): < 1 nM; Emax ([8]; relative to 1 mM glycine, read-out: NMDAR2A: % maximal [3H]MK-801 binding relative to 1 mM glycine): < 100%; Emax ([9]; relative to 1 mM glycine, read-out: NMDAR2B: % maximal [3H]MK-801 binding relative to 1 mM glycine): < 100%
77	83	92	85	+ (<100%=+)	< 1	+ (<100%=+)	− (−=0)	–	–	+ (<100%=+)	> 100	< 1	–	–	–	–	O=C1NCC12CCC1(CNC1=O)N2Cc1ccccc1 (single isomer, unassigned) [AC-3, 5-benzyl-2,5,8-triazadispiro[3.1.36.24]undecane-1,7-dione]	–	–	–
–	–	–	–	− (−=0)	< 1	+ (<100%=+)	+ (<100%=+)	–	–	+ (<100%=+)	–	> 100	–	–	–	< 1	CC(C)(C)OC(=O)N1CC2(CNC2=O)CC12CNC2=O (stereo not drawn) [AY-1]	–	–	EC50 ([10]; [3H]MK-801 binding, read-out: NMDAR2C: log EC50 (converted)): < 1 nM
